# pIC50: −log10 of the molar value. Counter-ions that a name gives are not always drawn.
# Biological target: Proton Pump (H^+/K^+-ATPase) (Sus scrofa, UniProt P19156)
# Experiment: Inhibitory effects on proton pump (H^+/K^+-ATPase) activity
# Format: biochemical
# Details: hog gastric vesicles; K^+ stimulated H^+/K^+-ATPase activity; 30 minutes at 37° C.
# Chain of Proton Pump (H^+/K^+-ATPase) (P19156 2-1034 limits assumed): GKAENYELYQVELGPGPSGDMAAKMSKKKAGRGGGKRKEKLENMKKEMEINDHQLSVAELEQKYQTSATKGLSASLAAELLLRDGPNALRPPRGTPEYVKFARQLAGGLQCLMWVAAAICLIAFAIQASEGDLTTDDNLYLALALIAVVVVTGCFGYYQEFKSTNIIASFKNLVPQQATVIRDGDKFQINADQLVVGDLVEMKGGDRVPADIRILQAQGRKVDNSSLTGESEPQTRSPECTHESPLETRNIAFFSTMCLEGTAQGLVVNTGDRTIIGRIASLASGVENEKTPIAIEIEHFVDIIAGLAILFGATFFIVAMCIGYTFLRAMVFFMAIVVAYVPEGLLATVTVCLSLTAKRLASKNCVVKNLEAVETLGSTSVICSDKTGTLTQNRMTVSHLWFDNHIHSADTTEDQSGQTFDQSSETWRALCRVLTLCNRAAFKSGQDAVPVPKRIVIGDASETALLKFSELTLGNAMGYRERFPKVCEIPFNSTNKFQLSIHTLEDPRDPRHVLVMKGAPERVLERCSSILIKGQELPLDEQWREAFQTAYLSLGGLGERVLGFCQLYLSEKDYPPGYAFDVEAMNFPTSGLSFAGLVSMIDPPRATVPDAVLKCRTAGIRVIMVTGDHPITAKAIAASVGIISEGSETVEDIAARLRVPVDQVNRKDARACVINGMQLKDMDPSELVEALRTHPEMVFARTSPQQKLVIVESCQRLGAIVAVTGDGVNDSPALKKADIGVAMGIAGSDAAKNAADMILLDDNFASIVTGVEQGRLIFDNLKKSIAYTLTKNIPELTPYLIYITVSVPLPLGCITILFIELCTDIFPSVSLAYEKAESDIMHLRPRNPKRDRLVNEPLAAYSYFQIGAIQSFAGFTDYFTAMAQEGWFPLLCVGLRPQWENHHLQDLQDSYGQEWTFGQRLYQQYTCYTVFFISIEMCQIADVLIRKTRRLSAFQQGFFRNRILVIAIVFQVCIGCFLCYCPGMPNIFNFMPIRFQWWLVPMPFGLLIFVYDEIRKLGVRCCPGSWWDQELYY
# Chain of Proton Pump (H^+/K^+-ATPase) (P18434 whole entry partner): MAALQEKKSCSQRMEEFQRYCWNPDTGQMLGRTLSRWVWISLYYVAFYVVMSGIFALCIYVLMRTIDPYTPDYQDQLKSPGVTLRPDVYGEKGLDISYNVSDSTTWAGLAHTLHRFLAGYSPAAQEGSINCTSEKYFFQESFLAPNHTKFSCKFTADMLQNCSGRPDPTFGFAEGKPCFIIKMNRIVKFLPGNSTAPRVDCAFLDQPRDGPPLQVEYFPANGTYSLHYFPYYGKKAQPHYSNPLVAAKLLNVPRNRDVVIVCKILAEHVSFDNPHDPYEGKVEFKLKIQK
row,pIC50,SMILES
1,7.36,"Cc1c(C)n(Cc2ccccc2)c2c(N3CCc4ccccc4C3)nc(C(=O)N3CCOCC3)cc12 [Example 764, [1-benzyl-7-(3,4-dihydro-1H-isoquinolin-2-yl)-2,3-dimethyl-1H-pyrrolo[2,3-c]pyridin-5-yl]-(morpholin-4-yl)-methanone]"
2,7.43,"Cc1c(C)n(Cc2cccc(F)c2)c2c(N3CCc4ccccc4C3)nc(CNC3CC3)cc12 [Example 871, N-[7-(3,4-dihydro-1H-isoquinolin-2-yl)-1-(3-fluorobenzyl)-2,3-dimethyl-1H-pyrrolo[2,3-c]pyridin-5-ylmethyl]-cyclopropylamine hydrochloride]"
3,6.42,"Cc1c(C)n(CC2CC2)c2c(COc3ccc(F)cc3)nccc12 [Example 7, 1-cyclopropylmethyl-7-(4-fluorophenoxymethyl)-2,3-dimethyl-1H-pyrrolo[2,3-c]pyridine hydrochloride]"
4,6.95,"Cc1c(C)n(Cc2ccccc2)c2c(N3CCc4ccccc4C3)nc(C(N)=O)cc12 [Example 745, 1-benzyl-7-(3,4-dihydro-1H-isoquinolin-2-yl)-2,3-dimethyl-1H-pyrrolo[2,3-c]pyridin-5-carboxamide]"
5,7.23,"CCn1c(C)c(C)c2ccnc(N3CCc4ccccc4C3)c21 [Example 481, 1-ethyl-7-(1,2,3,4-tetrahydroisoquinolin-2-yl)-2,3-dimethyl-1H-pyrrolo[2,3-c]pyridine hydrochloride]"
6,6.48,"Cc1c(C)n(Cc2cccc(Cl)c2)c2c(N3CCc4ccccc4C3)nc(C#N)cc12 [Example 689, 1-(3-chlorobenzyl)-7-(3,4-dihydro-1H-isoquinolin-2-yl)-2,3-dimethyl-1H-pyrrolo[2,3-c]pyridin-5-carbonitrile]"
7,7.07,"Cc1[nH]c2c(N3CCc4ccccc4C3)nc(C(=O)N3CCOCC3)cc2c1C [Example 776, [7-(3,4-dihydro-1H-isoquinolin-2-yl)-2,3-dimethyl-1H-pyrrolo[2,3-c]pyridin-5-yl]-(morpholin-4-yl)-methanone]"
8,6.33,"CCC1c2ccccc2CCN1c1nccc2c(C)c(C)n(C)c12 (stereo not drawn) [Example 575, 1-ethyl-2-(1,2,3-trimethyl-1H-pyrrolo[2,3-c]pyridin-7-yl)-1,2,3,4-tetrahydroisoquinoline hydrochloride]"
9,7.89,"CCn1c(C)c(C)c2cc(C(=O)N3CCC(O)CC3)nc(N3CCc4ccccc4C3)c21 [Example 806, [7-(3,4-dihydro-1H-isoquinolin-2-yl)-1-ethyl-2,3-dimethyl-1H-pyrrolo[2,3-c]pyridin-5-yl]-(4-hydroxypiperidin-1-yl)-methanone hydrochloride]"
10,6.91,"Cc1[nH]c2c(N3CCc4ccccc4C3)nc(C(=O)N3CCCCC3)cc2c1C [Example 791, [7-(3,4-dihydro-1H-isoquinolin-2-yl)-2,3-dimethyl-1H-pyrrolo[2,3-c]pyridin-5-yl]-(piperidin-1-yl)-methanone hydrochloride]"
11,6.36,"C#CCn1c(C)c(C)c2cc(Cl)nc(N3CCc4ccccc4C3)c21 [Example 659, 2-[5-chloro-2,3-dimethyl-1-(prop-2-ynyl)-1H-pyrrolo[2,3-c]pyridin-7-yl]-1,2,3,4-tetrahydroisoquinoline]"
12,6.96,"CCn1c(C)c(C)c2ccnc(N3CCc4ccc(F)cc4C3C)c21 (stereo not drawn) [Example 543, 2-(1-ethyl-2,3-dimethyl-1H-pyrrolo[2,3-c]pyridin-7-yl)-7-fluoro-1-methyl-1,2,3,4-tetrahydroisoquinoline hydrochloride]"
13,6.41,"Cc1[nH]c2c(NCc3ccc(F)cc3)nc(C#N)cc2c1C [Example 910, 7-(4-fluorobenzylamino)-2,3-dimethyl-1H-pyrrolo[2,3-c]pyridin-5-carbonitrile hydrochloride]"
14,6.92,"C=CCn1c(C)c(C)c2ccnc(C=Cc3ccccc3)c21 [Example 416, 1-allyl-2,3-dimethyl-7-styryl-1H-pyrrolo[2,3-c]pyridine hydrochloride]"
15,6.34,"C=Cc1ccc(-c2nccc3c(C)c(C)n(CC)c23)cc1 [Example 251, 1-ethyl-2,3-dimethyl-7-(4-vinylphenyl)-1H-pyrrolo[2,3-c]pyridine hydrochloride]"
16,7.26,"CCn1c(C)c(C)c2cc(C(=O)N3CCSCC3)nc(N3CCc4ccccc4C3)c21 [Example 808, [7-(3,4-dihydro-1H-isoquinolin-2-yl)-1-ethyl-2,3-dimethyl-1H-pyrrolo[2,3-c]pyridin-5-yl]-(thiomorpholin-4-yl)-methanone hydrochloride]"
17,5.87,"Cc1ccc(-c2nccc3c(C)c(C)n(CC4CCC4)c23)cc1 [Example 289, 1-cyclobutylmethyl-2,3-dimethyl-7-(p-tolyl)-1H-pyrrolo[2,3-c]pyridine hydrochloride]"
18,7.10,"Cc1[nH]c2c(NCc3ccccc3)nccc2c1C [Example 175, 7-benzylamino-2,3-dimethyl-1H-pyrrolo[2,3-c]pyridine hydrochloride]"

row,pIC50,SMILES
1,6.33,"COCCn1c(C)c(C)c2ccnc(N3CCc4ccccc4C3C3CC3)c21 (stereo not drawn) [Example 571, 1-cyclopropyl-2-[1-(2-methoxyethyl)-2,3-dimethyl-1H-pyrrolo[2,3-c]pyridin-7-yl]-1,2,3,4-tetrahydroisoquinoline hydrochloride]"
2,6.89,"Cc1c(C)n(Cc2ccccc2)c2c(N3CCc4ccccc4C3)nc(C(=O)O)cc12 [Example 744, 1-benzyl-7-(3,4-dihydro-1H-isoquinolin-2-yl)-2,3-dimethyl-1H-pyrrolo[2,3-c]pyridin-5-carboxylate sodium]"
3,7.40,"Cc1c(C)n(Cc2cccc(F)c2)c2c(N3CCc4ccccc4C3)nc(CNC(C)(C)C)cc12 [Example 869, N-[7-(3,4-dihydro-1H-isoquinolin-2-yl)-1-(3-fluorobenzyl)-2,3-dimethyl-1H-pyrrolo[2,3-c]pyridin-5-ylmethyl]-tert-butylamine hydrochloride]"
4,6.82,"Cc1c(C)n(Cc2cccc(F)c2)c2c(N3CCc4ccc(F)cc4C3C)nccc12 (stereo not drawn) [Example 542, 7-fluoro-2-[1-(3-fluorobenzyl)-2,3-dimethyl-1H-pyrrolo[2,3-c]pyridin-7-yl]-1-methyl-1,2,3,4-tetrahydroisoquinoline hydrochloride]"
5,7.49,"Cc1c(C)n(Cc2cccc(F)c2)c2c(N3CCc4ccccc4C3)nc(CO)cc12 [Example 851, 7-(3,4-dihydro-1H-isoquinolin-2-yl)-1-(3-fluorobenzyl)-2,3-dimethyl-1H-pyrrolo[2,3-c]pyridin-5-yl]-methanol hydrochloride]"
6,6.37,"Cc1c(C)n(Cc2cccc(Cl)c2)c2c(N3CCc4ccccc4C3)nc(-c3nnn[nH]3)cc12 [Example 852, 2-[1-(3-chlorobenzyl)-2,3-dimethyl-5-(1H-tetrazol-5-yl)-1H-pyrrolo[2,3-c]pyridin-7-yl]-1,2,3,4-tetrahydroisoquinoline]"
7,6.54,"Cc1c(C)n(Cc2ccccc2)c2c(NCc3ccc(F)cc3)nccc12 [Example 214, 1-benzyl-7-(4-fluorobenzylamino)-2,3-dimethyl-1H-pyrrolo[2,3-c]pyridine hydrochloride]"
8,9.15,"C=CCn1c(C)c(C)c2cc(C(=O)N3CCN(C)CC3)nc(N3CCc4ccccc4C3)c21 [Example 785, [1-allyl-7-(3,4-dihydro-1H-isoquinolin-2-yl)-2,3-dimethyl-1H-pyrrolo[2,3-c]pyridin-5-yl]-(4-methylpiperazin-1-yl)-methanone hydrochloride]"
9,6.46,"CCn1c(C)c(C)c2ccnc(NCc3ccccc3C)c21 [Example 225, 1-ethyl-2,3-dimethyl-7-(2-methylbenzylamino)-1H-pyrrolo[2,3-c]pyridine hydrochloride]"
10,7.92,"Cc1c(C)n(Cc2ccccc2)c2c(N3CCc4ccccc4C3)nc(C(=O)N3CCN(C)CC3)cc12 [Example 819, [1-benzyl-7-(3,4-dihydro-1H-isoquinolin-2-yl)-2,3-dimethyl-1H-pyrrolo[2,3-c]pyridin-5-yl]-(4-methylpiperazin-1-yl)-methanone hydrochloride]"
11,6.82,"COc1cccc(Cn2c(C)c(C)c3ccnc(COc4ccc(F)cc4)c32)c1 [Example 4, 7-(4-fluorophenoxymethyl)-1-(3-methoxybenzyl)-2,3-dimethyl-1H-pyrrolo[2,3-c]pyridine hydrochloride]"
12,6.62,"Cc1c(C)n(Cc2cccc(F)c2)c2c(N3CCc4ccccc4C3)nc(Cl)cc12 [Example 657, 5-chloro-[1-(3-fluorobenzyl)-7-(1,2,3,4-tetrahydroisoquinolin-2-yl)]-2,3-dimethyl-1H-pyrrolo[2,3-c]pyridine hydrochloride]"
13,7.15,"Cc1c(C)n(CC2CC2)c2c(NCc3ccc(F)cc3)nccc12 [Example 226, 1-cyclopropylmethyl-7-(4-fluorobenzylamino)-2,3-dimethyl-1H-pyrrolo[2,3-c]pyridine hydrochloride]"
14,7.57,"Cc1c(C)n(Cc2cccc(F)c2)c2c(CN(C)c3ccc(F)cc3)nccc12 [Example 114, N-[1-(3-fluorobenzyl)-2,3-dimethyl-1H-pyrrolo[2,3-c]pyridin-7-ylmethyl]-N-(4-fluorophenyl)-methylamine hydrochloride]"
15,6.64,"Cc1c(C)n(Cc2ccc(F)cc2)c2c(N3CCc4ccccc4C3)nccc12 [Example 471, 1-(4-fluorobenzyl)-7-(1,2,3,4-tetrahydroisoquinolin-2-yl)-2,3-dimethyl-1H-pyrrolo[2,3-c]pyridine hydrochloride]"
16,7.06,"Cc1c(C)n(Cc2cccc(F)c2)c2c(CCc3ccccc3)nccc12 [Example 449, 1-(3-fluorobenzyl)-2,3-dimethyl-7-phenethyl-1H-pyrrolo[2,3-c]pyridine hydrochloride]"
17,7.00,"Cc1c(C)n(Cc2ccccc2)c2c(CCc3ccccc3)nccc12 [Example 442, 1-benzyl-2,3-dimethyl-7-phenethyl-1H-pyrrolo[2,3-c]pyridine hydrochloride]"
18,7.03,"Cc1ccc(Cn2c(C)c(C)c3cc(C(=O)N4CCN(C)CC4)nc(N4CCc5ccccc5C4)c32)cc1 [Example 828, [7-(3,4-dihydro-1H-isoquinolin-2-yl)-1-(4-methylbenzyl)-2,3-dimethyl-1H-pyrrolo[2,3-c]pyridin-5-yl]-(4-methylpiperazin-1-yl)-methanone hydrochloride]"
